We go through six compounds from patent publication US20050175719A1, “Procyanidins for treatment and prevention of enzymatic irritation to the skin” (priority 2004, published 2005).

The subject of the assay is trypsin. Kind of assay: Inhibition of trypsin-induced cleavage of fluorescent BODIPY FL casein (EnzChek protease assay kit). Format: biochemical. From the text: The procedure of Example 1 was independently repeated using the procyanidin-containing grape seed extract and STI, respectively, at 0.1% concentration. In addition, the procedure of Example 1 was repeated on the five individual monomer units typically found in OPC, at up to three different concentration levels.

Setting [1] is: Table 4, concentration (w/w) 0.1 %.
The mark [2] stands for this setting: Table 4, concentration (w/w) 1 %.
[3] abbreviates: Table 4, concentration (w/w) 2.5 %.

As for `Oc1cc(O)c2c(c1)OC(c1ccc(O)c(O)c1)C(O)C2` (racemic) [Catechin (+/−)], the “% trypsin inhibition” value is recorded as 4.6% under setting [1], 61% under setting [2] and 76% under setting [3].

Take `Oc1cc(O)c2c(c1)OC(c1ccc(O)c(O)c1)C(O)C2` (stereo not drawn) [Catechin (+)]: the “% trypsin inhibition” value by setting is: under setting [1], 11%; under setting [2], 72%; under setting [3], 89%.

As for `Oc1cc(O)c2c(c1)O[C@@H](c1ccc(O)c(O)c1)[C@@H](O)C2` [Epicatechin (+)], the “% trypsin inhibition” value under setting [1] was 22%.

On to `Oc1cc(O)c2c(c1)O[C@H](c1ccc(O)c(O)c1)[C@H](O)C2` [Epicatechin (−)], for which the “% trypsin inhibition” value was 71% under setting [2] and 90% under setting [3].

Turning to `O=C1O[C@H]([C@@H](O)CO)C(O)=C1O` [Vit C, Vitamin C], the “trypsin inhibition activity (in words)” value (at concentrations up to 0.1%) is “no trypsin inhibition activity”. The “% trypsin inhibition” value by setting is: (concentration 0.001 % (w/w)) −2%; (concentration 0.01 % (w/w)) 1%; (concentration 0.05 % (w/w)) −12%.

For the compound Catechin (−), the “% trypsin inhibition” value under setting [1] is 18%, the “% trypsin inhibition” value under setting [2] is 70% and the “% trypsin inhibition” value under setting [3] came out at 92%.
